In BindingDB's records for patent US12065430 (Taiho Pharmaceutical, 2024):

biological target: T1, Son of sevenless homolog 1 [564-1049]/GTPase KRas [G12C] (UniProt P01116+Q07889, G12C); assay: Evaluation of Inhibitory Activity of Compounds on KRAS G12C Nucleotide (GDP-GTP) Exchange Reaction
T1 construct: 564-1049
Method: The inhibitory activity of compounds on exchange reaction of GDP into GppNHp in Bodipy (trademark) FL-bound KRAS G12C was examined by fluorescence measurement using human recombinant KRAS G12C and SOS1 proteins.For the preparation of KRAS G12C to which Bodipy FL GDP was bound, first, […] KRAS G12C (amino acid region: 1-169) and 1 mM Bodipy FL GDP (Invitrogen, G22360) were incubated for 1 hour in a buffer (20 mM Tris-HCl (pH 7.5), 50 mM NaCl, 1 mM DTT) in ice in the presence of 2.5 mM EDTA. Thereafter, MgCl2 with a final concentration of 10 mM was added, and the mixture was incubated at room temperature for 30 minutes. The protein was allowed to pass through a NAP-5 column to remove free nucleotides and was used for compound evaluation.For the measurement of the inhibitory activity of compounds on nucleotide exchange reaction, first, the compound of the present invention was diluted stepwise with dimethyl sulfoxide (DMSO). Subsequently, a solution of the gradually diluted compound of the present invention in DMSO (the final concentration of DMSO: 5%) and KRAS G12C (25 nM) bound to Bodipy FL GDP were added to a reaction buffer (20 mM Tris-HCl (pH 7.5), 100 mM NaCl, 1 mM MgCl2, 2 mM DTT, 0.1% Tween20), followed by preincubation at 25° C. for 4 hours. Thereafter, Son of Sevenless Homolog 1 (SOS1, amino acid region: 564-1049) and GppNHp (GMPPNP, Jena Bioscience GmbH, NU-401-50) were added such that their final concentration was 100 nM and 1 μM respectively, followed by reaction for 30 minutes. The change in fluorescence intensity of Bodipy FL (excitation wavelength: 485 nm, fluorescence wavelength: 520 nm) immediately after the start of reaction and after 30 minutes from the start of reaction was standardized. The signal value for only DMSO was determined to be 0% inhibition, and the signal value for no addition of GppNHp was determined to be 100% inhibition. The compound concentration at which 50% inhibition is achieved was determined to be IC50 (nM), and was calculated.

T1 sequence (P01116 whole entry G12C): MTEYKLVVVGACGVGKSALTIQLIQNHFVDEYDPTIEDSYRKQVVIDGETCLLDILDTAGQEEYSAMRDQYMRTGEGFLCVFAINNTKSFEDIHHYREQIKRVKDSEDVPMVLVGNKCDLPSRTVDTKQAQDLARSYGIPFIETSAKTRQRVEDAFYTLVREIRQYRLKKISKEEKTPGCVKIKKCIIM
T1 sequence (Q07889 564-1049): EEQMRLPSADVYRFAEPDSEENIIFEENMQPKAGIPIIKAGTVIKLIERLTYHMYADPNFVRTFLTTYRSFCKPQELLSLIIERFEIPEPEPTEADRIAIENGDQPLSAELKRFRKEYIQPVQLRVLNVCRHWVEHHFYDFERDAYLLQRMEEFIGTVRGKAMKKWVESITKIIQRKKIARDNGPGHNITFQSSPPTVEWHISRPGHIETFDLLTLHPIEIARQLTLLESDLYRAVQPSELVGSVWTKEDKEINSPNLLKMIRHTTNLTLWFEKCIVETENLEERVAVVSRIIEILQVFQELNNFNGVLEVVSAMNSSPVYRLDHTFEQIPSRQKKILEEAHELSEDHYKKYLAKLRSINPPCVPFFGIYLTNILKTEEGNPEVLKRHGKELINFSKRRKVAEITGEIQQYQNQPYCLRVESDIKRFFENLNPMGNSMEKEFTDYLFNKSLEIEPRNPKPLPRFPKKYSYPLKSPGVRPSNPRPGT

IC50 [nM]	SMILES
16	C=CC(=O)N1CC(NC(=O)c2cnc(CNc3n[nH]c4cc(Cl)c(C(C)(C)C)cc34)n2C)C1 [US12065430, Example 1]
365	C=CC(=O)N1CC(NC(=O)c2sc(CNc3n[nH]c4cc(Cl)c(C(C)(C)C)cc34)nc2C)C1 [US12065430, Example 2]
1560	C=CC(=O)N1CC(NC(=O)c2cnc(C(C)Nc3n[nH]c4cc(Cl)c(C(C)(C)C)cc34)n2C)C1 (configuration not stated) [US12065430, Example 4]
791	C=CC(=O)N1CC(NC(=O)c2c(Cl)c(CNc3n[nH]c4cc(Cl)c(C(C)(C)C)cc34)nn2C)C1 [US12065430, Example 6]
4260	C=CC(=O)N1CC(NC(=O)c2csc(CNc3n[nH]c4cc(Cl)c(C(C)(C)C)cc34)n2)C1 [US12065430, Example 7]
783	C=CC(=O)N1CC(NC(=O)c2cnc(CNc3n[nH]c4cc(Cl)c(C(C)(C)C)cc34)s2)C1 [US12065430, Example 8]
3140	C=CC(=O)N1CC(NC(=O)c2cc(CNc3n[nH]c4cc(Cl)c(C(C)(C)C)cc34)nn2C)C1 [US12065430, Example 9]
129	C=CC(=O)N1CC(NC(=O)c2c(C)c(CNc3n[nH]c4cc(Cl)c(C(C)(C)C)cc34)nn2C)C1 [US12065430, Example 10]
1060	C=CC(=O)N1CC(NC(=O)c2oc(CNc3n[nH]c4cc(Cl)c(C(C)(C)C)cc34)nc2C)C1 [US12065430, Example 11]
16	C=CC(=O)N1CC(NC(=O)c2c(C)nc(CNc3n[nH]c4cc(Cl)c(C(C)(C)C)cc34)n2CC)C1 [US12065430, Example 12]
15	C=CC(=O)N1CC(NC(=O)c2c(C)nc(CNc3n[nH]c4cc(Cl)c(C(C)(C)C)cc34)n2C(C)C)C1 [US12065430, Example 13]
24	C=CC(=O)N1CC(NC(=O)c2c(C)nc(CNc3n[nH]c4cc(Cl)c(C(C)(C)C)cc34)n2CCOC)C1 [US12065430, Example 14]
84	C=CC(=O)N1CC(NC(=O)c2c(C)nc(CNc3n[nH]c4cc(Cl)c(C(C)(C)C)cc34)n2Cc2ccccc2)C1 [US12065430, Example 15]
25	C=CC(=O)N1CC(NC(=O)c2c(C)nc(CNc3n[nH]c4cc(Cl)c(C(C)(C)C)cc34)n2CCN(C)C)C1 [US12065430, Example 16]
17	C=CC(=O)N1CC(NC(=O)c2c(C)nc(CNc3n[nH]c4cc(Cl)c(C(C)(C)C)cc34)n2C2CCCC2)C1 [US12065430, Example 17]
12	C=CC(=O)N1CC(NC(=O)c2c(C)nc(CNc3n[nH]c4cc(Cl)c(C(C)(C)C)cc34)n2CCCC)C1 [US12065430, Example 18]
9	C=CC(=O)N1CC(NC(=O)c2c(C)nc(CNc3n[nH]c4cc(Cl)c(C(C)(C)C)cc34)n2CCC)C1 [US12065430, Example 19]
31	C=CC(=O)N1CC(NC(=O)c2c(C)nc(CNc3n[nH]c4cc(Cl)c(C(C)(C)C)cc34)n2C(C)CC)C1 (configuration not stated) [US12065430, Example 20]
58	C=CC(=O)N1CC(NC(=O)c2c(C)nc(CNc3n[nH]c4cc(Cl)c(C(C)(C)C)cc34)n2C(F)F)C1 [US12065430, Example 21]
55	C=CC(=O)N1CC(NC(=O)c2c(C)nc(CNc3n[nH]c4cc(Cl)c(C(C)(C)C)cc34)n2CC(F)(F)F)C1 [US12065430, Example 22]
7	C=CC(=O)N1CC(NC(=O)c2c(C)nc(CNc3n[nH]c4cc(Cl)c(C(C)(C)C)cc34)n2C2CC2)C1 [US12065430, Example 23]
35	C=CC(=O)N1CC(NC(=O)c2c(C)nc(CNc3n[nH]c4cc(Cl)c(C(C)(C)C)cc34)n2C(C)(C)C)C1 [US12065430, Example 24]
163	C=CC(=O)N1CC(NC(=O)c2c(C(F)(F)F)nc(CNc3n[nH]c4cc(Cl)c(C(C)(C)C)cc34)n2C)C1 [US12065430, Example 25]
69	C=CC(=O)N1CC(NC(=O)c2c(I)nc(CNc3n[nH]c4cc(Cl)c(C(C)(C)C)cc34)n2C)C1 [US12065430, Example 26]
8	C=CC(=O)N1CC(NC(=O)c2c(Br)nc(CNc3n[nH]c4cc(Cl)c(C(C)(C)C)cc34)n2C)C1 [US12065430, Example 27]
70	C=CC(=O)N1CC(NC(=O)c2c(C#N)nc(CNc3n[nH]c4cc(Cl)c(C(C)(C)C)cc34)n2C)C1 [US12065430, Example 28]

IC50 [nM]	SMILES
6	C=CC(=O)N1CC(NC(=O)c2c(Cl)nc(CNc3n[nH]c4cc(Cl)c(C(C)(C)C)cc34)n2C)C1 [US12065430, Example 29]
11	C=CC(=O)N1CC(NC(=O)c2c(F)nc(CNc3n[nH]c4cc(Cl)c(C(C)(C)C)cc34)n2C)C1 [US12065430, Example 30]
642	C=CC(=O)N1CC(NC(=O)c2c(CC)nc(CNc3n[nH]c4cc(Cl)c(C(C)(C)C)cc34)n2C)C1 [US12065430, Example 31]
50	C=CC(=O)N1CC(NC(=O)c2c(C(F)(F)F)nc(CNc3n[nH]c4cc(Cl)c(C(C)(C)C)cc34)n2C(C)C)C1 [US12065430, Example 32]
13	C=CC(=O)N1CC(NC(=O)c2c(F)nc(CNc3n[nH]c4cc(Cl)c(C(C)(C)C)cc34)n2C(C)C)C1 [US12065430, Example 34]
8	C=CC(=O)N1CC(NC(=O)c2c(Cl)nc(CNc3n[nH]c4cc(Cl)c(C(C)(C)C)cc34)n2C(C)C)C1 [US12065430, Example 35]
5480	C=CC(=O)N1CC(NC(=O)c2cnc(CNc3n[nH]c4cc(Cl)c(C)cc34)n2C)C1 [US12065430, Example 37]
2170	C=CC(=O)N1CC(NC(=O)c2cnc(CNc3n[nH]c4cc(Cl)c(C=C)cc34)n2C)C1 [US12065430, Example 38]
870	C=CC(=O)N1CC(NC(=O)c2cnc(CNc3n[nH]c4cc(Cl)c(CC)cc34)n2C)C1 [US12065430, Example 39]
27	C=CC(=O)N1CC(NC(=O)c2cnc(CNc3n[nH]c4cc(Cl)c(C(C)(C)C)nc34)n2C)C1 [US12065430, Example 40]
14	C=CC(=O)N1CC(NC(=O)c2c(C)nc(CNc3n[nH]c4cc(C)c(C(C)(C)C)cc34)n2C)C1 [US12065430, Example 41]
68	C=CC(=O)N1CC(NC(=O)c2c(C)nc(CNc3n[nH]c4ccc(C(C)(C)C)cc34)n2C(C)C)C1 [US12065430, Example 42]
809	C=CC(=O)N1CC(NC(=O)c2c(Cl)nc(CNc3n[nH]c4cc(Cl)c(C(=C)C(F)(F)F)cc34)n2C(C)C)C1 [US12065430, Example 43]
180	C=CC(=O)N1CC(NC(=O)c2c(Cl)nc(CNc3n[nH]c4cc(Cl)c(C5(C(F)(F)F)CC5)cc34)n2C(C)C)C1 [US12065430, Example 44]
24	C=CC(=O)N1CC(NC(=O)c2c(Cl)nc(CNc3n[nH]c4cc(Cl)c(C(C)C)cc34)n2C(C)C)C1 [US12065430, Example 45]
1730	C=CC(=O)N1CCC(NC(=O)c2c(C)nc(CNc3n[nH]c4cc(Cl)c(C(C)(C)C)cc34)n2C)CC1 [US12065430, Example 47]
208	C=CC(=O)N1CC(N(C)C(=O)c2c(C)nc(CNc3n[nH]c4cc(Cl)c(C(C)(C)C)cc34)n2C)C1 [US12065430, Example 49]
4280	C=CC(=O)N1CCN(C(=O)c2c(C)nc(CNc3n[nH]c4cc(Cl)c(C(C)(C)C)cc34)n2C)CC1 [US12065430, Example 50]
42	C=CC(=O)N(C)C1CN(C(=O)c2c(C)nc(CNc3n[nH]c4cc(Cl)c(C(C)(C)C)cc34)n2C)C1 [US12065430, Example 51]
42	C=CC(=O)N1CC(NC(=O)c2c(C)nc(CNc3n[nH]c4cc(Cl)c(C(C)(C)C)cc34)n2C)C(F)(F)C1 (configuration not stated) [US12065430, Example 53]
301	C=CC(=O)N1C[C@H](NC(=O)c2c(C)nc(CNc3n[nH]c4cc(Cl)c(C(C)(C)C)cc34)n2C)C2(CC2)C1 [US12065430, Example 54]
19	C=CC(=O)N1C[C@@H](CC#N)[C@@H](NC(=O)c2c(C)nc(CNc3n[nH]c4cc(Cl)c(C(C)(C)C)cc34)n2C)C1 [US12065430, Example 65]
20	C=CC(=O)N1C[C@@H](CF)[C@@H](NC(=O)c2c(C)nc(CNc3n[nH]c4cc(Cl)c(C(C)(C)C)cc34)n2C)C1 [US12065430, Example 66]
24	C=CC(=O)N1C[C@@H](COC)[C@@H](NC(=O)c2c(C)nc(CNc3n[nH]c4cc(Cl)c(C(C)(C)C)cc34)n2C)C1 [US12065430, Example 67]
99	C=CC(=O)N1C[C@@H](CN(C)C)[C@@H](NC(=O)c2c(C)nc(CNc3n[nH]c4cc(Cl)c(C(C)(C)C)cc34)n2C)C1 [US12065430, Example 68]
52	C=CC(=O)N1CC[C@@H](NC(=O)c2c(Cl)nc(CNc3n[nH]c4cc(Cl)c(C(C)(C)C)cc34)n2C)C1 [US12065430, Example 73]
